Each structure is given as a SMILES string. In brackets after ≈: the same amount, converted by molar mass.

We go through seven compounds from article PMC9822072, “Synthesis and Structure–Activity Relationship of 2,6-Disubstituted Thiosemicarbazone Derivatives of Pyridine as Potential Antituberculosis Agents” (Materials, 2023).

The experiment deals with M. tuberculosis Spec. 210 (resistant strain isolated from TB patients). The experiment is described as follows: Tuberculostatic activity, twofold serial microdilution with Alamar Blue. Conditions: Mycobacterium tuberculosis, 504 h, read-out: MIC Spec. 210. It is filed as cell-based. For orientation: In broth dilution the organism is exposed to a series of concentrations in liquid medium.

With `NC(=NNC(=S)N1CCOCC1)c1cccc(N2CCCC2)n1` [Compound 4, N’-(Morpholine-4-Carbonothioyl)-6-(Pyrrolidin-1-Yl)Picolinohydrazonamide], the MIC was 4 µg/mL (≈ 12 µM).

`NC(=NNC(=S)N1CCCC1)c1cccc(N2CCCC2)n1` [Compound 5, 6-(Pyrrolidin-1-Yl)-N’-(Pyrrolidine-1-Carbonothioyl)Picolinohydrazonamide]: the MIC stood at 1 µg/mL (≈ 3.14 µM). For the compound `NC(=NNC(=S)N1CCOCC1)c1cccc(N2CCCCC2)n1` [Compound 6, N’-(Morpholine-4-Carbonothioyl)-6-(Piperidin-1-Yl)Picolinohydrazonamide], the MIC is 1 µg/mL (≈ 2.87 µM). Regarding `NC(=NNC(=S)N1CCCC1)c1cccc(N2CCCCC2)n1` [Compound 7, 6-(Piperidin-1-Yl)-N’-(Pyrrolidine-1-Carbonothioyl)Picolinohydrazonamide], the MIC was 0.5 µg/mL (≈ 1.5 µM). Turning to `NC(=NNC(=S)N1CCOCC1)c1cccc(Oc2ccccc2)n1` [Compound 8, N’-(Morpholine-4-Carbonothioyl)-6-Phenoxypicolinohydrazonamide], the MIC was determined as 4 µg/mL (≈ 11.2 µM). The same measure for `NC(=NNC(=S)N1CCCC1)c1cccc(Oc2ccccc2)n1` [Compound 9, 6-Phenoxy-N’-(Pyrrolidine-1-Carbonothioyl)Picolinohydrazonamide]: 4 µg/mL (≈ 11.7 µM); for `NNC(=O)c1ccncc1` [INH, isoniazid, reference compound]: 8 µg/mL (≈ 58.3 µM).

What is called MIC is the smallest concentration in the dilution series that meets the test's criterion for growth inhibition.
